Reference: patent US8198434B2, “Process for preparing cefsulodin sodium” (IDEXX Laboratories, Inc., priority 2008, dated 2012)

Assays:
Assay type in all cases: physicochemical
[1] = Stability of needle-shaped and spherical-shaped cefsulodin sodium crystals at 55° C. (Example 5); conditions: for Purity Day 1 / Purity Day 7 / Purity Day 14 / Purity Day 21: crystal form stored at 55° C.
Method: Needle-shaped cefsulodin sodium crystals were obtain according to a process similar to the process described in Example 2.
Spherical-shaped cefsulodin sodium crystals were obtain according to the process described in Example 3.
The stability of each crystal form was measured at 55° C.

[2] = Solubility in water
[3] = Stability study of cefsulodin sodium stored at 40° C., purity by HPLC (Example 3); conditions: for Purity Day 0: Day 0, HPLC peak area; for Purity Day 7: Day 7, HPLC peak area; for Purity Day 14: Day 14, HPLC peak area; for Purity Day 21: Day 21, HPLC peak area; for Purity Day 28: Day 28, HPLC peak area; for Purity Day 42: Day 42, HPLC peak area; for Purity Day 49: Day 49, HPLC peak area; for Purity Day 56: Day 56, HPLC peak area; for Purity Day 63: Day 63, HPLC peak area; for Purity Day 70: Day 70, HPLC peak area; for Purity Day 35: Day 35, HPLC peak area
Method: (§1) Three lots of cefsulodin sodium, prepared according to the process described in Example 2, were stored at 55° C. and 40° C. and the purity of the sample determined as a function of time using HPLC. […] The stability of a lyophilized sample of cefsulodin sodium containing about 5-6% water at 55° C. was also determined. The lyophilized sample was prepared by suspending cefsulodin in water, adding sodium hydroxide until the cefsulodin dissolved, and then removing the water by lyophilization. The area of the HPLC peak corresponding to cefsulodin was used to determine purity. The following assay was used to determine purity:
(§2) 1. 25 mM Sodium Acetate pH 4.5 • a. Measure out 2 L of HPLC grade water. • b. Add 4.1 g of sodium acetate. • c. Mix until dissolved. • d. Adjust the pH to 4.5 with HPLC grade acetic acid. • e. Filter the solution through a nylon filter.
(§3) 2. 3% acetonitrile-97% 25 mM sodium acetate pH 4.5 (Mobile Phase A) • a. Measure out 1940 mL of 25 mM sodium acetate into a 2 L flask. • b. Add 60 mL of HPLC grade acetonitrile. • c. Mix well.
(§4) 3. HPLC Grade acetonitrile (Mobile Phase B) • a. Transfer acetonitrile into a 1 L flask. Sample Preparation:
(§5) 1. Weigh out about 10 mg of cefsulodin into a 15 mL conical tube.
(§6) 2. Add […] of mobile phase A and mix to dissolve (1 mg/mL cefsulodin Stock solution).
(§7) 3. Transfer 1 mL of cefsulodin stock solution into another 15 mL conical tube.
(§8) 4. Add 7 mL of mobile phase A to make a 0.125 mg/mL solution of cefsulodin.
(§9) 5. Filter this solution through a nylon syringe filter into an HPLC vial.
(§10) 6. Analyze the sample by HPLC using the conditions described below.
(§11) Solvents: Pump A-Mobile Phase A • Pump B-Mobile Phase B
(§12) Detection wavelength: 254 nm
(§13) Initial Conditions: 100% Pump A-0% Pump B
(§14) The above gradient can be summarized as follows: maintain at 0% B for 0.3 min; at 0.3 min run a gradient to 70% B for 2.5 min; maintain at 70% B for 1 min; at 3.5 min go back to 0% B for 0.5 min; run at 0% B until the 8.00 min mark.

[4] = Stability study of cefsulodin sodium stored at 55° C., purity by HPLC (Example 3); conditions: for Purity Day 0: Day 0, HPLC peak area; for Purity Day 7: Day 7, HPLC peak area; for Purity Day 14: Day 14, HPLC peak area; for Purity Day 21: Day 21, HPLC peak area; for Purity Day 28: Day 28, HPLC peak area; for Purity Day 42: Day 42, HPLC peak area; for Purity Day 49: Day 49, HPLC peak area; for Purity Day 56: Day 56, HPLC peak area; for Purity Day 63: Day 63, HPLC peak area; for Purity Day 70: Day 70, HPLC peak area; for Purity Day 35: Day 35, HPLC peak area
Method: as §1, §2, §3, §4, §5, §6, §7, §8, §9, §10, §11, §12, §13, §14

[5] = Storage at about room temperature, purity by HPLC

Row | SMILES | Purity Day 0 [3] [%] | Purity Day 7 [3] [%] | Purity Day 14 [3] [%] | Purity Day 21 [3] [%] | Purity Day 28 [3] [%] | Purity Day 42 [3] [%] | Purity Day 49 [3] [%] | Purity Day 56 [3] [%] | Purity Day 63 [3] [%] | Purity Day 70 [3] [%] | Purity Day 0 [4] [%] | Purity Day 7 [4] [%] | Purity Day 14 [4] [%] | Purity Day 21 [4] [%] | Purity Day 28 [4] [%] | Purity Day 42 [4] [%] | Purity Day 49 [4] [%] | Purity Day 56 [4] [%] | Purity Day 63 [4] [%] | Purity Day 70 [4] [%] | other results
1 | NC(=O)c1cc[n+](CC2=C(C(=O)[O-])N3C(=O)[C@@H](NC(=O)[C@@H](c4ccccc4)S(=O)(=O)[O-])[C@H]3SC2)cc1.[Na+] [Needle-shaped, cefsulodin sodium] | – | – | – | – | – | – | – | – | – | – | – | – | – | – | – | – | – | – | – | – | stability of crystal forms (comparison) ([1]; 55° C.): more stable than the spherical-shaped crystals; Purity Day 1 [1]: 99.2; Purity Day 7 [1]: 98.1; Purity Day 14 [1]: 96.8; Purity Day 21 [1]: 95.7
2 | NC(=O)c1cc[n+](CC2=C(C(=O)O)N3C(=O)[C@@H](NC(=O)[C@@H](c4ccccc4)S(=O)(=O)[O-])[C@H]3SC2)cc1 [cefsulodin] | – | – | – | – | – | – | – | – | – | – | – | – | – | – | – | – | – | – | – | – | solubility in water [2]: insoluble in water
3 | NC(=O)c1cc[n+](CC2=C(C(=O)[O-])N3C(=O)[C@@H](NC(=O)[C@@H](c4ccccc4)S(=O)(=O)[O-])[C@H]3SC2)cc1.[Na+] [Lot 3, cefsulodin sodium] | 99.3 | 98.4 | 98.5 | 98.1 | 97.9 | 96.2 | 97.2 | 97.3 | 97.0 | 97.0 | 99.3 | 96.9 | 96.1 | 94.8 | 93.9 | 93.4 | 92.6 | 92.7 | 91.3 | 91.3 | –
4 | NC(=O)c1cc[n+](CC2=C(C(=O)O)N3C(=O)[C@@H](NC(=O)[C@@H](c4ccccc4)S(=O)(=O)[O-])[C@H]3SC2)cc1 [Lyophilized, cefsulodin sodium] | – | – | – | – | – | – | – | – | – | – | 98.8 | – | – | – | 80.4 | – | – | – | – | – | –
5 | NC(=O)c1cc[n+](CC2=C(C(=O)[O-])N3C(=O)[C@@H](NC(=O)[C@@H](c4ccccc4)S(=O)(=O)[O-])[C@H]3SC2)cc1.[Na+] [Lot 1, cefsulodin sodium] | 99.2 | 98.2 | 98.2 | 97.5 | 97.2 | 96.3 | 96.4 | 96.0 | 96.0 | 95.3 | 99.2 | 97.2 | 96.0 | 94.9 | 94.3 | 91.8 | 90.9 | 90.5 | 89.8 | 89.1 | Purity Day 35 [3]: 96.4%; Purity Day 35 [4]: 93.4%
6 | NC(=O)c1cc[n+](CC2=C(C(=O)O)N3C(=O)[C@@H](NC(=O)[C@@H](c4ccccc4)S(=O)(=O)[O-])[C@H]3SC2)cc1 [cefsulodin sodium] | – | – | – | – | – | – | – | – | – | – | – | – | – | – | – | – | – | – | – | – | purity after storage for 29 days ([5]; about room temperature, 29 days): 80.4%; purity after storage for 56 days ([5]; about room temperature, 56 days): 76.7%; purity determined by HPLC before storage ([5]; initial, before storage at about room temperature): about 95%
7 | NC(=O)c1cc[n+](CC2=C(C(=O)[O-])N3C(=O)[C@@H](NC(=O)[C@@H](c4ccccc4)S(=O)(=O)[O-])[C@H]3SC2)cc1.[Na+] [Spherical-shaped, cefsulodin sodium] | – | – | – | – | – | – | – | – | – | – | – | – | – | – | – | – | – | – | – | – | Purity Day 1 [1]: 98.5; Purity Day 7 [1]: 86.3; Purity Day 14 [1]: 83.7; Purity Day 21 [1]: 83.1
8 | NC(=O)c1cc[n+](CC2=C(C(=O)[O-])N3C(=O)[C@@H](NC(=O)[C@@H](c4ccccc4)S(=O)(=O)[O-])[C@H]3SC2)cc1.[Na+] [monosodium cefsulodin, monosodium salt of cefsulodin] | – | – | – | – | – | – | – | – | – | – | – | – | – | – | – | – | – | – | – | – | solubility in water [2]: more soluble in water that cefsulodin
9 | NC(=O)c1cc[n+](CC2=C(C(=O)[O-])N3C(=O)[C@@H](NC(=O)[C@@H](c4ccccc4)S(=O)(=O)[O-])[C@H]3SC2)cc1.[Na+] [Lot 2, cefsulodin sodium] | 99.2 | 98.5 | 98.3 | 97.7 | 97.1 | 96.5 | 96.4 | 96.4 | 96.1 | 95.6 | 99.2 | 97.1 | 96.1 | 94.7 | 94.4 | 91.8 | 91.0 | 90.1 | 89.8 | 89.2 | Purity Day 35 [3]: 96.8%; Purity Day 35 [4]: 92.9%
